Experimental data reported in the NIST ThermoML archive (doi:10.1021/je2013704).

Test: mn = molality of the nth substance listed, in mol/kg
Details: Liquid, Vibrating tube method

[I-].[K+] [potassium iodide] + O
mass density [kg/m3]
Details	283.15 K	298.12 K	323.07 K	348.04 K	372.99 K	397.97 K	422.94 K	447.94 K	472.96 K
1050 kPa, m1 = 0.669	1078.98	1074.75	1064.04	1049.72	1032.6	1012.71	990.31	965.35	–
1050 kPa, m1 = 0.9	–	1100.27	1088.99	1074.24	1056.8	1036.96	1014.85	990.56	–
1050 kPa, m1 = 1.063	1122.95	1117.9	1106.19	1091.2	1073.46	1053.24	1030.64	1005.63	–
10020 kPa, m1 = 0.669	1083.16	1078.81	1067.95	1053.73	1036.79	1017.19	995.34	970.94	944.19
10020 kPa, m1 = 0.9	–	1104.27	1092.94	1078.29	1061.02	1041.47	1019.62	996.18	–
10020 kPa, m1 = 1.063	1127.11	1121.98	1110.17	1095.23	1077.72	1057.79	1035.74	1011.23	984.84
19970 kPa, m1 = 0.669	1087.75	1083.04	1072.19	1057.99	1041.3	1022.06	1000.61	976.95	950.96
19970 kPa, m1 = 0.9	–	1108.67	1097.21	1082.62	1065.55	1046.32	1024.97	1002.22	–
19970 kPa, m1 = 1.063	1131.7	1126.32	1114.52	1099.65	1082.29	1062.77	1041.07	1017.26	991.38
29900 kPa, m1 = 0.669	1092.18	1087.37	1076.42	1062.23	1045.73	1026.71	1005.73	982.65	957.4
29900 kPa, m1 = 0.9	–	1112.93	1101.41	1086.89	1070.01	1050.95	1030.16	1007.94	–
29900 kPa, m1 = 1.063	1136.2	1130.67	1118.76	1103.95	1086.83	1067.47	1046.25	1022.96	997.97
39830 kPa, m1 = 0.669	1096.51	1091.56	1080.45	1066.38	1050.01	1031.29	1010.72	988.1	963.57
39830 kPa, m1 = 0.9	–	1117.15	1105.46	1091.06	1074.32	1055.56	1035.28	1013.36	–
39830 kPa, m1 = 1.063	1140.54	1134.96	1122.89	1108.16	1091.17	1072.16	1051.3	1028.47	1004.2
49760 kPa, m1 = 0.669	1100.74	1095.69	1084.42	1070.32	1054.18	1035.78	1015.55	993.34	969.44
49760 kPa, m1 = 0.9	–	1121.3	1109.41	1095.03	1078.51	1060.02	1040.03	1018.68	–
49760 kPa, m1 = 1.063	1144.78	1139.11	1126.88	1112.21	1095.44	1076.71	1056.19	1033.81	1010.14
59680 kPa, m1 = 0.669	1104.92	1099.67	1088.3	1074.35	1058.24	1040.1	1020.17	998.49	975.11
59680 kPa, m1 = 0.9	–	1125.31	1113.37	1099.04	1082.5	1064.32	1044.78	1023.8	–
59680 kPa, m1 = 1.063	1149.02	1143.14	1130.86	1116.3	1099.61	1081.09	1060.87	1038.97	1015.81
68120 kPa, m1 = 0.669	1108.52	1103	1091.53	1077.66	1061.64	1043.65	1024	1002.64	979.68
68120 kPa, m1 = 0.9	–	1128.62	1116.58	1102.03	1085.89	1067.94	1048.68	1027.98	–
68120 kPa, m1 = 1.063	1152.59	1146.49	1134.11	1119.62	1103.03	1084.7	1064.81	1043.19	1020.4
